Reference: patent US9238056B2, “Cyclic peptide and conjugate thereof for binding to keratinocytes” (LEO PHARMA A/S, priority 2011, dated 2016)
Bridge positions count the residues as written; N and C are the ends. Ends that are not written are not given here. * marks the point of attachment. Acetylthioacetyl = CC(=O)SCC(=O)*

Key:
A431 cells [1] = test: Binding of DiD-labeled peptide-conjugated liposomes to A431 cells at 4° C. (flow cytometry); assay type: cell-based, human
Protocol: (§1) Human epidermal carcinoma cells A431 were subcultured in Dulbecco's modified Eagle's medium (DMEM) containing 3.7 g/l sodium bicarbonate and 4.5 g/l glucose, supplemented with antimicrobial agents, 2 mM L-glutamine and 7.5% (v/v) fetal bovine serum, at 37° C. in a humidified atmosphere containing 5% CO2. Nearly confluent mono-layers of A431 cells were washed with PBS and cells were detached using 1 mM tris-EDTA in PBS. The cells were subsequently suspended in cold PBS supplemented with 1.26 mM CaCl2 and 0.81 mM MgSO4 at 4° C. The cells were counted after centrifugation and 10^5 cells in 100 μl media were incubated with 100 μl liposomes diluted in PBS supplemented with 1.26 mM CaCl and 0.81 mM MgSO4, different concentrations of DiD-labeled liposomes (10-200 nmol total lipid), RKK12-conjugated liposomes (RKK12-liposomes) or AKK12-coupled liposomes (AKK12-liposomes) for 1 h at 4° C.
(§2) In the cellular internalization of liposomes experiment, similar different concentrations of DiD-labeled liposomes (10-200 nmol total lipid) RKK12-liposomes were incubated for 1 hour at 37° C. […] At the end of the incubation period, cells were washed three times in the 5% BSA supplemented PBS-buffer at 4° C., and resuspended in 200 μl PBS supplied with 5% BSA after which they were analyzed on a FACScalibur flow cytometer (Becton-Dickinson). […]

A431 cells [2] = test: Cellular internalization of DiD-labeled peptide-conjugated liposomes at 37° C. (flow cytometry); assay type: cell-based, human; settings: 1 hour at 37° C., FIG. 4
Protocol: as §1, §2

integrin α2β1 receptor = target: T1, integrin α2β1 receptor (Homo sapiens, UniProt P17301); settings: cyclic peptide: in the presence of 2 mM MgCl2; cited from earlier work
T1 sequence (P17301 153-368 limits assumed): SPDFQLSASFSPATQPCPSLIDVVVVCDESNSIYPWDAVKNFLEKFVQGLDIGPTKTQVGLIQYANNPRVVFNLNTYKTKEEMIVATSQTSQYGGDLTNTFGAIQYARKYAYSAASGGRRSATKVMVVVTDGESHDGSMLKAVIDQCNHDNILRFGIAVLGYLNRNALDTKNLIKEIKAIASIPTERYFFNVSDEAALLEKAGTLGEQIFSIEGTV

HaCat cells = settings: cited from earlier work
[3] = tested on: Adult human epidermal keratinocytes (HEKa); test: Cathelicidin (CAMP) expression by qPCR in keratinocytes incubated with calcipotriol-loaded liposomes; assay type: cell-based; settings: 10^−7 M calcipotriol, 1 h at 37° C. then 24 h, versus placebo RKK12-conjugated liposomes, FIG. 6
Protocol: Adult human epidermal keratinocytes (HEKa) were obtained from Cascade Biologics (Portland, Oreg., USA) and cultured in EpiLife Medium (Cascade Biologics) containing human keratinocyte growth supplement and gentamicin/Amphotericin B (Cascade Biologics) at 37° C. in a humidified atmosphere with 5% CO2. For the cell interaction assay, 2×10^5 exponentially growing keratinocytes were seeded one day prior to treatment. On the following day (at 80% confluency), the medium was renewed, and the cell culture media was supplied with 15 μl of liposome suspension for a final concentration of 10^−7 M calcipotriol in the well, 15 μl placebo liposomal suspension, or calcipotriol in 0.1% DMSO solution for a final concentration of 10^−7 M and incubated 1 h at 37° C. The liposomes were conjugated with either the RKK12-peptide or the AKK12-peptide. After 1 h, the cells were washed three times with PBS supplemented with 1% BSA, and 1.5 ml media was added followed by incubation for 24 h at 37° C. Subsequently, the medium was removed, and mRNA was extracted using the RNeasy kit from Quiagen (Hilden, Germany). […] The relative change in the expression of CAMP was quantified using the comparative CT method (2^−ΔΔCt)(K. J. Livak and T. D. Schmittgen, Methods 25, 2001, pp. 402-408).

[4] = target: T2, integrin α2β1 receptor on the surface of A431 human epidermal carcinoma cells (human, UniProt P17301 30-1181; P05556 21-798); test: flow cytometry, DiD-labeled peptide-conjugated liposomes on A431 cells at 4° C.
T2 construct: whole, on cells; Endogenous receptor on A431 cells; also called human integrin α2β1 receptor
T2 sequence (P17301 30-1181, chain 1 of 2): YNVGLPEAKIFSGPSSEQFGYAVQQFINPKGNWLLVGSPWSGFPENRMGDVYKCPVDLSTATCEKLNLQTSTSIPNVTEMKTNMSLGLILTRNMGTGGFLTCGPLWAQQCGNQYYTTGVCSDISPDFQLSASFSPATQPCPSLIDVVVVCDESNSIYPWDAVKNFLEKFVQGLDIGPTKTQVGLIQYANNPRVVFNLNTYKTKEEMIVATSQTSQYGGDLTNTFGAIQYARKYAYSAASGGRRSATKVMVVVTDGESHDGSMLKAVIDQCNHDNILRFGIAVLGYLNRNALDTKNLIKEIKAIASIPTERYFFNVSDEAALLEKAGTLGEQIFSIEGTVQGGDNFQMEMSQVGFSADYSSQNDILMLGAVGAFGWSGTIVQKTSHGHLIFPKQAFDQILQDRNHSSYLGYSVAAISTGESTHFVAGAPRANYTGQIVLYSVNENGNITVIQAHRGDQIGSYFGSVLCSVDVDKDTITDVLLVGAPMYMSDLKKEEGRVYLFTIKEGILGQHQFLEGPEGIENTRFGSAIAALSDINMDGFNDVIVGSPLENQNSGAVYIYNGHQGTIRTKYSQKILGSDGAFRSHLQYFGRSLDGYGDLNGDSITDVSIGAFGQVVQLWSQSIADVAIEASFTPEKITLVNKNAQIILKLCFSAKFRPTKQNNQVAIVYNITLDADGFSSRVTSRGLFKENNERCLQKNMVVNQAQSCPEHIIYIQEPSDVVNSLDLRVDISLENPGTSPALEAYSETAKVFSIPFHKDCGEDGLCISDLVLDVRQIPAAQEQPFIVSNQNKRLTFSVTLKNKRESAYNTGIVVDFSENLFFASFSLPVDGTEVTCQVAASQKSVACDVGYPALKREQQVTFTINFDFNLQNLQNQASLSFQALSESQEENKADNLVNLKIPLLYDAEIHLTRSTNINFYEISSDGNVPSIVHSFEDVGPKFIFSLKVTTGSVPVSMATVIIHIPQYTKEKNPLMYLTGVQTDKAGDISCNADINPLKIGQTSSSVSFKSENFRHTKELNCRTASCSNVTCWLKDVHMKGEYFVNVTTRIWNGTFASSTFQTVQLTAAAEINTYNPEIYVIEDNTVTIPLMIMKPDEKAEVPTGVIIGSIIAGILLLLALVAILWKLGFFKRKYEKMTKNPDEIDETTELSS
T2 sequence (P05556 21-798, chain 2 of 2): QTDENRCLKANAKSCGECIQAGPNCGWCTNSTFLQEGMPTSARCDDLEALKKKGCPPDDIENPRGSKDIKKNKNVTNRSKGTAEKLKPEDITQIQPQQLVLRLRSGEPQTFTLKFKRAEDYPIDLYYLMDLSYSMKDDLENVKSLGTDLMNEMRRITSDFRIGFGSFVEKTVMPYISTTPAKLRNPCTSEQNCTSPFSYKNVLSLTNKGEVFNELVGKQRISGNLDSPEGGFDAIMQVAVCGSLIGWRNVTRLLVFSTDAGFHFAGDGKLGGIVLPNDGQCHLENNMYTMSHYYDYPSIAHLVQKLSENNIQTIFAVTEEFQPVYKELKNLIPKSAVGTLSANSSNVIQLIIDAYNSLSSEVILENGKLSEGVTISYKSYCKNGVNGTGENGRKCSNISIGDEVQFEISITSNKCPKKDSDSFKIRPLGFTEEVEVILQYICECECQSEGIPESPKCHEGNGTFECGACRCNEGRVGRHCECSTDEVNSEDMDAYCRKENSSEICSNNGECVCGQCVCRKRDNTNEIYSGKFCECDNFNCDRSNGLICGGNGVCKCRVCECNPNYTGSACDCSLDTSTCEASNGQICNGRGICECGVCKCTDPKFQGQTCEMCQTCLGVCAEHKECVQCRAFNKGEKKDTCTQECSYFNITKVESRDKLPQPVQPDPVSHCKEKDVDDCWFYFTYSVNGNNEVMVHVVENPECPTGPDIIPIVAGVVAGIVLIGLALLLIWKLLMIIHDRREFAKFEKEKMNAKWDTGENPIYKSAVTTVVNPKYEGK

With “RKK12-liposomes: DiD-labeled liposomes (DSPC, PEG2000-DSPE, Mal-PEG2000-DSPE, cholesterol) conjugated with RKK12 peptide (cyclo(KHDNAQSK(Acetylthioacetyl)STRK); also: conjugated to DiD-labeled liposomes)” the “association of liposomes at low Mg2+ concentrations, versus AKK12-conjugated liposomes” value (A431 cells [1]; 4° C., PBS not supplied with CaCl2 or MgSO4, FIG. 5) was “only slightly higher”, the “fluorescence of cells (association of liposomes)” value (A431 cells [1]; 1 h at 4° C., PBS with 1.26 mM CaCl2 and 0.81 mM MgSO4, 10-200 nmol total lipid, FIG. 3) was “significantly more fluorescent” and the “internalization (cellular uptake) of liposomes” value (A431 cells [2]) was “highest”.

For “C^241TRKKHDNAQ^249C: nine amino acid long cyclic peptide with RKK motif derived from jararhagin (Ivaska et al.) (CTRKKHDNAQC; disulfide 1-11)”, the “inhibition of collagen I interaction with the integrin α2β1 receptor” value (integrin α2β1 receptor) is listed as “inhibit the interaction”.

In the case of C=C1/C(=C\C=C2/CCC[C@]3(C)[C@@H]([C@H](C)/C=C/[C@@H](O)C4CC4)CC[C@@H]23)C[C@@H](O)C[C@@H]1O [calcipotriol], the levels of cathelicidin (HaCat cells) is given as “Increased levels”.

With “AKK12-conjugated liposomes: calcipotriol-loaded liposomes conjugated with the control peptide AKK12 (cyclo(KHDNRQSK(Acetylthioacetyl)STAK); not fully specified)” the “expression of cathelicidin (CAMP) normalized to GAPDH” value [3] was “no significant difference between the formulations”.

B1: RKK12 head-to-tail cyclized targeting peptide H-KHDNAQS-(SATA)KSTRK-OH, conjugated to DiD-labeled liposomes (peptide)
peptide: cyclo(KHDNAQSKSTRK)
modifications: not fully specified (residue 8)
notes: Synthetic cyclic peptide; tested only as a conjugate on the surface of DiD-labeled PEGylated liposomes, so many copies per particle; also called RKK12-peptide; RKK-12 peptide
B1: binds [4].

B2: AKK12 head-to-tail cyclized control peptide H-KHDNRQS-(SATA)KSTAK-OH, conjugated to DiD-labeled liposomes (peptide)
peptide: cyclo(KHDNRQSKSTAK)
modifications: not fully specified (residue 8)
notes: Control peptide with similar charge as RKK12 but without the RKK motif (Arg and Ala exchanged); tested only as a liposome conjugate; also called AKK12-peptide; AKK12-liposomes
B2: binds [4].
